Measurements: the NIST ThermoML archive (doi:10.1016/j.fluid.2018.09.026)
“And” between values parts separate entries of the source, which are not always exact repeats. Identical values can stand only once.

Conditions: Liquid; for mass density: Vibrating tube method; for viscosity: Vibrating wire viscometry

OCCOCCO [diethylene glycol]
Conditions | mass density | viscosity
283.15 K, 100 kPa | 1123.1 kg/m3 | –
283.15 K, 640 kPa | 1123.3 kg/m3 | –
283.15 K, 1080 kPa | 1123.5 kg/m3 | –
283.15 K, 1590 kPa | 1123.7 kg/m3 | –
283.15 K, 2140 kPa | 1124 kg/m3 | –
283.15 K, 3050 kPa | 1124.3 kg/m3 | –
283.15 K, 5050 kPa | 1125.2 kg/m3 | –
283.15 K, 6930 kPa | 1126 kg/m3 | –
283.15 K, 9930 kPa | 1127.2 kg/m3 | –
283.15 K, 14810 kPa | 1129.3 kg/m3 | –
283.15 K, 19760 kPa | 1131.3 kg/m3 | –
283.15 K, 24610 kPa | 1133.3 kg/m3 | –
283.15 K, 29600 kPa | 1135.2 kg/m3 | –
283.15 K, 34500 kPa | 1137.1 kg/m3 | –
283.15 K, 39420 kPa | 1139 kg/m3 | –
283.15 K, 44300 kPa | 1140.8 kg/m3 | –
283.15 K, 49180 kPa | 1142.6 kg/m3 | –
283.15 K, 54060 kPa | 1144.4 kg/m3 | –
283.15 K, 59030 kPa | 1146.1 kg/m3 | –
283.15 K, 63810 kPa | 1147.8 kg/m3 | –
283.15 K, 68760 kPa | 1149.5 kg/m3 | –
293.15 K, 100 kPa | 1115.9 kg/m3 | –
293.15 K, 570 kPa | 1116.1 kg/m3 | –
293.15 K, 1080 kPa | 1116.3 kg/m3 | –
293.15 K, 1530 kPa | 1116.6 kg/m3 | –
293.15 K, 2110 kPa | 1116.8 kg/m3 | –
293.15 K, 3080 kPa | 1117.2 kg/m3 | –
293.15 K, 5040 kPa | 1118.1 kg/m3 | –
293.15 K, 6990 kPa | 1118.9 kg/m3 | –
293.15 K, 9940 kPa | 1120.2 kg/m3 | –
293.15 K, 14840 kPa | 1122.3 kg/m3 | –
293.15 K, 19740 kPa | 1124.3 kg/m3 | –
293.15 K, 24680 kPa | 1126.4 kg/m3 | –
293.15 K, 29600 kPa | 1128.4 kg/m3 | –
293.15 K, 34530 kPa | 1130.3 kg/m3 | –
293.15 K, 39360 kPa | 1132.2 kg/m3 | –
293.15 K, 44320 kPa | 1134.1 kg/m3 | –
293.15 K, 49120 kPa | 1136 kg/m3 | –
293.15 K, 54090 kPa | 1137.8 kg/m3 | –
293.15 K, 58990 kPa | 1139.6 kg/m3 | –
293.15 K, 63820 kPa | 1141.3 kg/m3 | –
293.15 K, 68750 kPa | 1143 kg/m3 | –
293.23 K, 180 kPa | – | 34.67 mPa·s [middle of 4 runs]
293.23 K, 1170 kPa | – | 34.84 mPa·s [middle of 4 runs]
293.23 K, 2100 kPa | – | 34.99 mPa·s [middle of 5 runs]
293.23 K, 2110 kPa | – | 35.15 mPa·s
293.23 K, 5060 kPa | – | 35.84 mPa·s and 36.03 mPa·s and 36.04 mPa·s
293.23 K, 5070 kPa | – | 35.72 mPa·s
293.23 K, 10240 kPa | – | 37.39 mPa·s [middle of 4 runs]
293.23 K, 19990 kPa | – | 40.52 mPa·s [middle of 4 runs]
293.23 K, 29910 kPa | – | 43.47 mPa·s and 43.45 mPa·s
293.23 K, 29920 kPa | – | 43.5 mPa·s and 43.6 mPa·s
293.23 K, 40040 kPa | – | 47.04 mPa·s [middle of 5 runs]
293.23 K, 50530 kPa | – | 51.14 mPa·s [middle of 4 runs]
293.23 K, 69900 kPa | – | 58.55 mPa·s
293.23 K, 69990 kPa | – | 58.38 mPa·s
293.23 K, 70070 kPa | – | 58.52 mPa·s
303.15 K, 100 kPa | 1108.8 kg/m3 | –
303.15 K, 680 kPa | 1109 kg/m3 | –
303.15 K, 1130 kPa | 1109.2 kg/m3 | –
303.15 K, 1580 kPa | 1109.4 kg/m3 | –
303.15 K, 2120 kPa | 1109.7 kg/m3 | –
303.15 K, 3030 kPa | 1110.1 kg/m3 | –
303.15 K, 5040 kPa | 1111 kg/m3 | –
303.15 K, 6950 kPa | 1111.9 kg/m3 | –
303.15 K, 9960 kPa | 1113.2 kg/m3 | –
303.15 K, 14840 kPa | 1115.4 kg/m3 | –
303.15 K, 19740 kPa | 1117.5 kg/m3 | –
303.15 K, 24680 kPa | 1119.6 kg/m3 | –
303.15 K, 29610 kPa | 1121.6 kg/m3 | –
303.15 K, 34520 kPa | 1123.6 kg/m3 | –
303.15 K, 39380 kPa | 1125.6 kg/m3 | –
303.15 K, 44350 kPa | 1127.5 kg/m3 | –
303.15 K, 49140 kPa | 1129.4 kg/m3 | –
303.15 K, 54090 kPa | 1131.3 kg/m3 | –
303.15 K, 58990 kPa | 1133.1 kg/m3 | –
303.15 K, 63850 kPa | 1134.9 kg/m3 | –
303.15 K, 68760 kPa | 1136.6 kg/m3 | –
303.27 K, 180 kPa | – | 21.44 mPa·s [middle of 5 runs]
303.27 K, 190 kPa | – | 21.49 mPa·s
303.27 K, 1070 kPa | – | 21.42 mPa·s
303.27 K, 1080 kPa | – | 21.42 mPa·s and 21.5 mPa·s and 21.48 mPa·s
303.27 K, 2100 kPa | – | 21.72 mPa·s and 21.69 mPa·s
303.27 K, 5160 kPa | – | 22.14 mPa·s and 22.35 mPa·s and 22.13 mPa·s
303.27 K, 5170 kPa | – | 22.08 mPa·s
303.27 K, 10180 kPa | – | 22.97 mPa·s
303.27 K, 10190 kPa | – | 23.05 mPa·s and 23.2 mPa·s and 23 mPa·s
303.27 K, 20040 kPa | – | 24.7 mPa·s and 25.05 mPa·s and 24.87 mPa·s
303.27 K, 30920 kPa | – | 26.77 mPa·s [middle of 5 runs]
303.27 K, 40100 kPa | – | 28.49 mPa·s [middle of 5 runs]
303.27 K, 50040 kPa | – | 30.4 mPa·s
303.27 K, 50050 kPa | – | 30.52 mPa·s and 30.43 mPa·s
303.27 K, 50060 kPa | – | 30.59 mPa·s
303.27 K, 50070 kPa | – | 30.49 mPa·s
303.27 K, 68860 kPa | – | 34.35 mPa·s
303.27 K, 68920 kPa | – | 34.55 mPa·s
303.27 K, 69030 kPa | – | 34.74 mPa·s
303.27 K, 69090 kPa | – | 34.81 mPa·s
313.15 K, 100 kPa | 1101.7 kg/m3 and 1101.6 kg/m3 | –
313.15 K, 640 kPa | 1101.8 kg/m3 | –
313.15 K, 1140 kPa | 1102.1 kg/m3 | –
313.15 K, 1640 kPa | 1102.3 kg/m3 | –
313.15 K, 2100 kPa | 1102.5 kg/m3 | –
313.15 K, 3090 kPa | 1103 kg/m3 | –
313.15 K, 5130 kPa | 1103.9 kg/m3 | –
313.15 K, 6960 kPa | 1104.8 kg/m3 | –
313.15 K, 9960 kPa | 1106.1 kg/m3 | –
313.15 K, 14940 kPa | 1108.4 kg/m3 | –
313.15 K, 19750 kPa | 1110.6 kg/m3 | –
313.15 K, 24640 kPa | 1112.7 kg/m3 | –
313.15 K, 29640 kPa | 1114.8 kg/m3 | –
313.15 K, 34510 kPa | 1116.9 kg/m3 | –
313.15 K, 39340 kPa | 1118.9 kg/m3 | –
313.15 K, 44340 kPa | 1120.9 kg/m3 | –
313.15 K, 49190 kPa | 1123.2 kg/m3 | –
313.15 K, 54020 kPa | 1124.7 kg/m3 | –
313.15 K, 59030 kPa | 1126.7 kg/m3 | –
313.15 K, 63880 kPa | 1128.5 kg/m3 | –
313.15 K, 68820 kPa | 1130.3 kg/m3 | –
313.38 K, 200 kPa | – | 14.25 mPa·s and 14.24 mPa·s and 14.26 mPa·s
313.38 K, 210 kPa | – | 14.23 mPa·s [middle of 5 runs]
313.38 K, 1170 kPa | – | 14.28 mPa·s and 14.27 mPa·s
313.38 K, 1180 kPa | – | 14.33 mPa·s
313.38 K, 2300 kPa | – | 14.28 mPa·s
313.38 K, 2310 kPa | – | 14.5 mPa·s
313.38 K, 2320 kPa | – | 14.38 mPa·s
313.38 K, 5060 kPa | – | 14.69 mPa·s and 14.72 mPa·s
313.38 K, 5070 kPa | – | 14.63 mPa·s and 14.65 mPa·s
313.38 K, 5080 kPa | – | 14.64 mPa·s
313.38 K, 10280 kPa | – | 15.26 mPa·s
313.38 K, 10290 kPa | – | 15.13 mPa·s
313.38 K, 10300 kPa | – | 15.2 mPa·s
313.38 K, 20100 kPa | – | 16.33 mPa·s
313.38 K, 20110 kPa | – | 16.16 mPa·s and 16.17 mPa·s
313.38 K, 30110 kPa | – | 17.27 mPa·s and 17.34 mPa·s and 17.33 mPa·s
313.38 K, 40110 kPa | – | 18.5 mPa·s [middle of 4 runs]
313.38 K, 50110 kPa | – | 19.66 mPa·s and 19.68 mPa·s
313.38 K, 50120 kPa | – | 19.64 mPa·s
313.38 K, 50130 kPa | – | 19.61 mPa·s
313.38 K, 69490 kPa | – | 22.11 mPa·s
313.38 K, 69530 kPa | – | 22.04 mPa·s
313.38 K, 69580 kPa | – | 21.98 mPa·s
323.15 K, 100 kPa | 1094.3 kg/m3 | –
323.15 K, 680 kPa | 1094.6 kg/m3 | –
323.15 K, 1130 kPa | 1094.8 kg/m3 | –
323.15 K, 1570 kPa | 1095 kg/m3 | –
323.15 K, 2100 kPa | 1095.2 kg/m3 | –
323.15 K, 3080 kPa | 1095.7 kg/m3 | –
323.15 K, 5080 kPa | 1096.7 kg/m3 | –
323.15 K, 7000 kPa | 1097.6 kg/m3 | –
323.15 K, 9950 kPa | 1099 kg/m3 | –
323.15 K, 14890 kPa | 1101.4 kg/m3 | –
